# Results as given in the PolyMetriX glass transition set.
row,glass transition temperature,Compound
1,2.00 °C,*/C=C/C(C)C(*)C(=O)OCCCCCCN(C)c1ccc(N(C)C)cc1 (repeat unit)
2,68.00 °C,*/C=C/C1CC(*)C(C#N)(C[Si](C)(C)O[Si](C)(C)C)C1 (repeat unit)
3,88.00 °C,*/C=C/C1CC(*)C(C#N)([Si](C)(C)O[Si](C)(C)C)C1 (repeat unit)
4,120.00 °C,*/C=C/C1CC(*)C(C#N)([Si](C)(C)[Si](C)(C)C)C1 (repeat unit)
5,29.00 °C,*/C=C/C1CC(*)C(C(=O)OCCNC(C)(C)C)C1 (repeat unit)
6,72.60 °C,*/C=C/C1CC(*)C(C(=O)Oc2ccccc2)C1 (repeat unit)
7,24.00 °C,*/C=C/C1CC(*)C([Si](C)(C)C[Si](C)(C)C)C1 (repeat unit)
8,139.00 °C,*/C=C/C1CC(*)C2C(=O)N(CCC)C(=O)C12 (repeat unit)
9,59.00 °C,*/C=C/C1CC(*)C2C(=O)N(CCCCCCC)C(=O)C12 (repeat unit)
10,50.00 °C,*/C=C/C1CC(*)C2C(=O)N(CCCCCCCCCCCC)C(=O)C12 (repeat unit)
11,248.00 °C,*/C=C/C1CC(*)C2C(=O)N(c3ccccc3C)C(=O)C12 (repeat unit)
12,163.00 °C,*/C=C/c1cc(OCC(CC)CCCC)c(*)cc1-c1ccc(N(c2ccc(OC)cc2)c2ccc(OC)cc2)cc1 (repeat unit)
13,60.00 °C,*/C=C/c1cc(OCCCCCC)c(*)cc1OC (repeat unit)
14,63.00 °C,*/C=C/c1ccc(/C=C/[Si](C)(C)c2ccc([Si](*)(C)C)cc2)cc1 (repeat unit)
15,134.00 °C,*/C=C/c1sc(-c2ccc(-c3ccc(-c4ccc(-c5sc(/C=C/C6=CC(=C(C#N)C#N)C=C(*)O6)c(CCCCCC)c5CCCCCC)s4)s3)s2)c(CCCCCC)c1CCCCCC (repeat unit)
16,114.00 °C,*/C=C/c1sc(-c2ccc(-c3sc(/C=C/C4=CC(=C(C#N)C#N)C=C(*)O4)c(CCCCCC)c3CCCCCC)s2)c(CCCCCC)c1CCCCCC (repeat unit)
17,85.00 °C,*CCCCCCCCOc1c(OC)cc(/C=C/c2cc(C(C)C)c(/C=C/c3cc(OC)c(O*)c(OC)c3)cc2C(C)C)cc1OC (repeat unit)
18,120.00 °C,*CCN(CCOC(=O)/C=C/c1ccc(/C=C/C(=O)O*)cc1)c1ccc(/N=N/c2ccc([N+](=O)[O-])cc2)cc1 (repeat unit)
19,65.00 °C,*CCOCCOCCOC(=O)/C=C/C(=O)NCCCCCCNC(=O)/C=C/C(=O)O* (repeat unit)
20,52.00 °C,*CCOCCOCCOCCOC(=O)/C=C/C(=O)NCCCCCCNC(=O)/C=C/C(=O)O* (repeat unit)
21,243.00 °C,*Oc1ccc(-c2ccc(OC(=O)/C=C/c3ccc(/C=C/C(*)=O)cc3)cc2)cc1 (repeat unit)
22,197.00 °C,*c1ccc(/C=C(\c2ccc(OC)cc2)c2ccc(/C(=C/c3ccc(N(*)c4ccccc4)cc3)c3ccc(OC)cc3)cc2)cc1 (repeat unit)
23,130.00 °C,*c1ccc2c(c1)Sc1cc(-c3sc(/C=C/C4=CC(=C(C#N)C#N)C=C(/C=C/c5sc(*)c(CCCCCC)c5CCCCCC)O4)c(CCCCCC)c3CCCCCC)ccc1N2CCCCCC (repeat unit)

row,Compound,glass transition temperature
1,*/C=C/C(C)C(*)C(=O)OC (repeat unit),53.00 °C
2,*/C=C/C(C*)OC (repeat unit),-10.50 °C
3,*/C=C/C1CC(*)C(C(=O)OC)C1 (repeat unit),65.00 °C
4,*/C=C/C1CC(*)C(C2CC=CCC2)C1 (repeat unit),105.00 °C
5,*/C=C/C1CC(*)C2CC=CC12 (repeat unit),53.00 °C
6,*C/C=C/C(C)S(*)(=O)=O (repeat unit),71.00 °C
7,*CCOCCOC(=O)/C=C/C(=O)O* (repeat unit),-8.20 °C
